From patent US10238667B2, “Vitamin D receptor/SMAD genomic circuit gates fibrotic response” (Salk Institute for Biological Studies, priority 2013, dated 2019)

Columns and labels:
[1] = test system: rat HSCs; assay: Microarray of culture-induced activation of HSCs; assay type: cell-based; settings: 3 days culture on plastic, 10 nM 1,25(OH)2D3
Experimental: VDR Signaling Suppresses TGFβ-induced Pro-Fibrotic Genes. (A) Heat map comparing 519 differentially expressed genes in freshly isolated rat HSCs (quiescent HSCs, Q-HSCs), activated HSCs (A-HSCs, 3 days culture on plastic) and cells cultures in the presence of 10 nM 1,25(OH)2D3 (A-HSCs+1,25(OH)2D3). Euclidean clustering of both rows and columns using log2 transformed microarray expression data, n=2 per treatment group. […] Data represents the mean±SEM of at least three independent experiments performed in triplicate. Asterisks denote statistically significant differences (Student's unpaired t-test, *p<0.05, **p<0.01). HSCs were isolated from 10-week old male C57BL/6J mice and Wistar rats by in situ pronase, collagenase perfusion and single-step Histogenz gradient as previously reported (Hendriks et al., 1985; Knook et al., 1982). Isolated HSCs were cultured in DMEM (Mediatech) containing 20% FBS (Hyclone) on 6-well plates for 40 hours prior to end-point assays. Total RNA from primary rat or mouse HSCs was isolated using the RNeasy mini kit (Qiagen) according to standard protocols. RNA integrity and quality was assessed using the Agilent Bioanalyzer and prepared for hybridization to Illumina rat or mouse gene expression arrays according to standard Illumina protocols. Feature extraction was performed using the Illumina GenomeStudio software. […]

[2] = test system: SMAD3; assay: ChIP-Seq signal intensity at VDR/SMAD3 co-occupied sites in LX-2 cells (SMAD3); assay type: cell-based, human; settings: TGFβ1 1 ng/ml ± calcipotriol 100 nM, 4 hours
Excerpt: FIGS. 10A-10G. Genomic Antagonism between VDR and SMAD. […] The three co-occupied sites are designated as 1, 2 and 3. (D) and (F) ChIP-qPCR at COL1A1 regulatory region #1 co-bound by VDR and SMAD3 in LX-2 cells treated as above. (E) and (G) ChIP-qPCR at COL1A1 regulatory region #1 of control (siCNTL), VDR-specific (siVDR), or SMAD3-specific (siSMAD3) siRNA transfected LX-2 cells treated as above. Occupancy is expressed relative to input chromatin. Data represents the mean±SEM of at least three independent experiments performed in triplicate. Asterisks denote statistically significant differences (Student's t-test, *p<0.05, **p<0.01).
Cells were then harvested for ChIP assay. The experimental procedure for ChIP was as previously described (Barish et al., 2010). […]
The procedure was as previously described (Barish et al., 2010). Briefly, short DNA reads were aligned against the human hg18 reference genome (NCBI Build 36.1) using the Illumina Pipeline Suite v1.7. Reads were aligned using the Bowtie aligner allowing up to 2 mismatches in the read. […] The threshold for the number of tags that determine a valid peak was selected for a false discovery rate of <0.0001, as empirically determined by repeating the peak finding procedure using randomized tag positions. […]

[3] = test system: primary mouse HSCs; assay: Fibrotic gene expression in primary mouse HSCs; assay type: cell-based; settings: primary mouse HSCs (data not shown)
Experimental: HSCs were isolated from 10-week old male C57BL/6J mice and Wistar rats by in situ pronase, collagenase perfusion and single-step Histogenz gradient as previously reported (Hendriks et al., 1985; Knook et al., 1982). Isolated HSCs were cultured in DMEM (Mediatech) containing 20% FBS (Hyclone) on 6-well plates for 40 hours prior to end-point assays.
LX-2 cells, a generous gift from Professor Scott Friedman, Mount Sinai School of Medicine, New York, N.Y., were cultured as described previously (Xu et al., 2005). […] For luciferase assays, DNA transfections were performed using Fugene 6 (Roche) following the manufacturer's instructions. […] RT-qPCR, total RNA was purified following TRIzol extraction and treated with DNaseI (Invitrogen). cDNA synthesis was carried out with iScript RT Supermix (Biorad). Quantitative PCR was performed in technical triplicates using SYBR Green reagent (Biorad). The relative standard curve method was used for quantitation (Biorad). Expression levels were calculated by normalization to either Gapdh (mouse) or U36B4 (human) quantities.

[4] = test system: CBP, p300 and acetylated histone H3; assay: ChIP-qPCR of CBP, p300 and acetylated histone H3 at COL1A1 regulatory region in LX-2 cells; assay type: cell-based, human; settings: co-treated with calcipotriol 100 nM and TGFβ1 1 ng/ml
Excerpt: FIGS. 12A-12B. Coactivator/Corepressor Recruitment and Histone H3 Acetylation Status at Regulatory Regions of Fibrotic Genes Co-occupied by VDR and SMAD. […] The level of occupancy is expressed relative to input chromatin in LX-2 cells treated with corresponding conditions. Data represents the mean+/−SEM of at least three independent experiments performed in triplicate. Asterisks denote statistically significant differences (Student's t test, *p<0.05). […] The level of occupancy is expressed relative to input chromatin in LX-2 cells treated with corresponding conditions.
Cells were then harvested for ChIP assay. The experimental procedure for ChIP was as previously described (Barish et al., 2010). Briefly, after fixation, nuclei from LX-2 cells were isolated, lysed and sheared with a Diagenode Bioruptor to yield DNA fragment sizes of 200-1000 base pairs followed by immunoprecipitation using antibodies listed below: normal rabbit IgG (Santa Cruz, sc-2027), VDR (Santa Cruz, sc-1008), SMAD3 (Abcam, ab28379) and histone H3 (Abcam, ab1791). For ChIP-Re-ChIP, after first ChIP, the immunoprecipitated DNA-protein complex was eluted from beads using 10 mM DTT, diluted 100-fold then re-immunoprecipitated with a second antibody, re-ChIP.

Row | SMILES | culture-induced activation of HSCs (transcriptome) [1] | TGFβ-induced recruitment of SMAD3 globally compromised [2] | fibrotic gene expression [3] | TGFβ1 induced recruitment of p300 and CBP and histone H3 hyperacetylation at COL1A1 regulatory region [4]
1 | C=C1/C(=C\C=C2/CCC[C@]3(C)C([C@H](C)CCCC(C)(C)O)CC[C@@H]23)C[C@@H](O)C[C@@H]1O (stereo partly drawn) [1,25(OH)2D3, 1α,25 dihydroxyvitamin D3] | attenuated |  |  | 
2 | C=C1/C(=C\C=C2/CCC[C@]3(C)[C@@H]([C@H](C)/C=C/[C@@H](O)C4CC4)CC[C@@H]23)C[C@@H](O)C[C@@H]1O [calcipotriol, 1α,24-(OH)2-24-cyclopropyl-D3] |  | ~1.5 fold | potently repressed | lost
